Here are results for 18 compounds from patent publication US9981950B2, “Triazoles as NR2B receptor inhibitors” (Janssen Pharmaceuticals, Inc., priority 2014, dated 2018).

A value given as a limit tells only on which side of the number the result lay.

The target of assay [1] is T1, rat NR1/NR2B receptor (Rattus norvegicus (Rat), UniProt P35439+Q00960). Put plainly: NR2B binding assay: inhibition of specific [3H]-Ifenprodil binding to the rat NR1/NR2B receptor. Particulars: rat brain membranes, Hill-plot 2-parameter-model. As to the method:
Inhibition of Specific Binding to the Rat NR1/NR2B Receptor
(§1) Male Wistar rats (180 to 200 g) were killed by suffocation in a CO2 chamber for two minutes. Whole brains without cerebellum were removed and dissected on ice, placed into closed vials and stored at −70° C.
Membrane fractions were prepared and tested using standard techniques. At the time of the assay, 1 g of the brains was placed into 25 ml of 50 mM Tris/10 mM EDTA buffer, pH 7.1, (25 vol. per g of original tissue) and homogenized for 30 sec at 20000 rpm with an Ultraturrax T25 (Jahnke & Kunkel, IKA-Labortechnik, Staufen, Germany). The homogenate was centrifuged at 4° C. for 10 min at 48000 g (OPTIMA L-70, Beckman, Palo Alto, Calif. 94304, USA).
The supernatant was discarded and the pellet was homogenized on ice for 30 sec at 20000 rpm with an Ultraturrax and again centrifuged at 48000 g for 30 minutes at 4° C. The resulted pellet was resuspended in 25 ml of 50 mM Tris/10 mM EDTA buffer, homogenized for 30 sec with an Ultraturrax, aliquoted, frozen at −70° C. and stored until use.
After thawing on the day of the assay, a 5 ml membrane aliquot was centrifuged at 48000 g for 30 min at 4° C. The pellet was resuspended in 5 ml of 5 mM Tris/1 mM EDTA buffer, pH 7.4, homogenized for 30 sec at 20000 rpm with an Ultraturrax and centrifuged at 48000 g for 30 min at 4° C. This was repeated twice. The final pellet was homogenized in 5 ml of 5 mM Tris/l mM EDTA buffer at 4° C. with an Ultraturrax and used for the Ifenprodil-binding assay as described in the following.
Nonspecific binding was estimated in the presence of […] CP101.606. The samples were incubated for 60 min. at 4° C.
The incubation was terminated by filtration of the membrane preparations using Filtermat B (Pharmacia, Uppsala Sweden) and a Micro Cell Harvester (Skatron, Lier, Norway). The Filtermat B had been presoaked with 1% polyethylene imine and carefully washed with 50 mM Tris/HCl-buffer pH 7.7 after the filtration to separate free and bound radioactivity.
The optimal amount of membrane preparation in the assay had been determined and optimized for each membrane preparation separately before the test.
For pipetting of the incubation mixture we routinely used the robot Biomek2000 (Fa. Beckman).
For determination of IC50 values the Hill-plot, 2-parameter-model was used.

In assay [2] the target is hERG-receptor (Homo sapiens (Human), UniProt Q12809). Put plainly: HERGBD: inhibition of specific 3H-Dofetilide binding to the hERG-receptor. Particulars: HEK cell membranes with human ERG, Hill-plot 2-parameter-model. As to the method: Inhibition of Specific Binding to the hERG-Receptor (HERGBD)
A HEK cell line with stable transfected human ERG receptor was used for the assay. The cells were grown adherently and maintained in DULBECCOS' MEM medium with 10% FBS, 1% non-essential amino acids, 1% Penicillin/Streptomycin and 400 μg/ml G418 (Calbiochem).
For binding assays and membrane preparations the cell culture medium was removed, cells were washed with PBS. Crude membranes for radioligand binding experiments were prepared by scraping the cells off the dishes in ice cold 20 mM HEPES/0.1 mM KCl/pH 7.2. The cell suspension was homogenized on ice (Ultra turrax, 3×20 sec.) and the homogenate was spun for 10 min (1° C., 1000 g, OPTIMA, SW28, 2800 U/min). The supernatant was than centrifuged for 40 min at 100000 g (1° C., OPTIMA, SW28, 23000 U/min). The membrane pellet was resuspended in 20 mM HEPES/0.1 mM KCl/pH 7.2, frozen and stored at −80° C.
After thawing on the day of the assay, the membrane suspension was diluted further with 20 mM HEPES/0.1 mM KCl/pH 7.2.
The incubation mixture of 200 μl contained 1.5 nmol/l 3H-Dofetilide, optimized amount of membrane preparation, 20 mM HEPES/0.1 mM KCl/(pH 7.2) and inhibitor in 1% DMSO. Nonspecific binding was estimated in the presence of […] Dofetilide. The samples were incubated for 90 min. at RT.
Binding was terminated by filtration of the incubated membrane preparations using Filtermat B (Pharmacia, Uppsala Sweden) and a Micro Cell Harvester (Skatron, Lier, Norway). The Filtermat B had been presoaked with 1% polyethylenimine and carefully washed with 0.05 M Tris/HCl-buffer pH=7.7 after the filtration to separate free and bound radioactivity. The filters were counted in a scintillation counter (Betaplate 1205, Berthold, Wildbad, Germany) in order to determine the specific binding of [^3H]-Dofetilide.
The optimal amount of membrane preparation in the assay was determined and optimized for each membrane preparation separately in front of using the membranes in compound testing.
For pipetting of the incubation mixture we routinely use the robot Biomek2000 (Fa. Beckman).
(hERG is a cardiac potassium channel; its block is linked to QT prolongation.)

The target of assay [3] is T1, rat NR1/NR2B receptor. Put plainly: RRNR2BB: inhibition of specific binding to the rat NR1/NR2B receptor. The settings on record: [3H]-Ifenprodil binding, rat brain membranes, Hill-plot 2-parameter-model. As to the method:
RRNR2BB—Inhibition of Specific Binding to the Rat NR1/NR2B Receptor
as §1
Membrane fractions were prepared and tested using standard techniques. At the time of the assay, 1 g of the brains were placed into 25 ml of 50 mM Tris/10 mM EDTA buffer, pH=7.1, (25 vol. per g of original tissue) and was homogenized for 30 sec at 20000 U/min with an Ultraturrax T25 (Jahnke & Kunkel, IKA-Labortechnik, Staufen, Germany). The homogenate was centrifuged at 4° C. for 10 min at 48000 g (OPTIMA L-70, Beckman, Palo Alto, Calif. 94304, USA). The supernatant was discarded and the pellet was homogenized on ice for 30 sec at 20000 U/min with an Ultraturrax and again centrifuged at 48000 g for 30 minutes at 4° C. The resultant pellet was resuspended in 25 ml of 50 mM Tris/10 mM EDTA buffer, homogenized for 30 sec with an Ultraturrax, aliquoted, frozen at −70° C. and stored until use
After thawing on the day of the assay, a 5 ml membrane aliquote was centrifuged at 48000 g for 30 min at 4° C. The pellet was resuspended in 5 ml of 5 mM Tris/1 mM EDTA buffer, pH=7.4, homogenized for 30 sec at 20000 U/min with an Ultraturrax and centrifuged at 48000 g for 30 min at 4° C. This step was repeated twice. The final pellet was homogenized in 5 ml of 5 mM Tris/mM EDTA buffer at 4° C. with an Ultraturrax and used for the Ifenprodil-binding assay.
Nonspecific binding was estimated in the presence of 10 M CP101.606. The samples were incubated for 60 min. at 4° C.
Binding was terminated by filtration of the incubated membrane preparations using Filtermat B (Pharmacia, Uppsala Sweden) and a Micro Cell Harvester (Skatron, Lier, Norway). The Filtermat B had been presoaked with 1% polyethylenimine and carefully washed with […] Tris/HCl-buffer pH=7.7 after the filtration to separate free and bound radioactivity.
For pipetting of the incubation mixture the robot Biomek2000 (Fa. Beckman) was used.
The IC50 values in the tables below were determined using the Hill-plot, 2-parameter-model.

Chain of hERG-receptor (Q12809 whole entry): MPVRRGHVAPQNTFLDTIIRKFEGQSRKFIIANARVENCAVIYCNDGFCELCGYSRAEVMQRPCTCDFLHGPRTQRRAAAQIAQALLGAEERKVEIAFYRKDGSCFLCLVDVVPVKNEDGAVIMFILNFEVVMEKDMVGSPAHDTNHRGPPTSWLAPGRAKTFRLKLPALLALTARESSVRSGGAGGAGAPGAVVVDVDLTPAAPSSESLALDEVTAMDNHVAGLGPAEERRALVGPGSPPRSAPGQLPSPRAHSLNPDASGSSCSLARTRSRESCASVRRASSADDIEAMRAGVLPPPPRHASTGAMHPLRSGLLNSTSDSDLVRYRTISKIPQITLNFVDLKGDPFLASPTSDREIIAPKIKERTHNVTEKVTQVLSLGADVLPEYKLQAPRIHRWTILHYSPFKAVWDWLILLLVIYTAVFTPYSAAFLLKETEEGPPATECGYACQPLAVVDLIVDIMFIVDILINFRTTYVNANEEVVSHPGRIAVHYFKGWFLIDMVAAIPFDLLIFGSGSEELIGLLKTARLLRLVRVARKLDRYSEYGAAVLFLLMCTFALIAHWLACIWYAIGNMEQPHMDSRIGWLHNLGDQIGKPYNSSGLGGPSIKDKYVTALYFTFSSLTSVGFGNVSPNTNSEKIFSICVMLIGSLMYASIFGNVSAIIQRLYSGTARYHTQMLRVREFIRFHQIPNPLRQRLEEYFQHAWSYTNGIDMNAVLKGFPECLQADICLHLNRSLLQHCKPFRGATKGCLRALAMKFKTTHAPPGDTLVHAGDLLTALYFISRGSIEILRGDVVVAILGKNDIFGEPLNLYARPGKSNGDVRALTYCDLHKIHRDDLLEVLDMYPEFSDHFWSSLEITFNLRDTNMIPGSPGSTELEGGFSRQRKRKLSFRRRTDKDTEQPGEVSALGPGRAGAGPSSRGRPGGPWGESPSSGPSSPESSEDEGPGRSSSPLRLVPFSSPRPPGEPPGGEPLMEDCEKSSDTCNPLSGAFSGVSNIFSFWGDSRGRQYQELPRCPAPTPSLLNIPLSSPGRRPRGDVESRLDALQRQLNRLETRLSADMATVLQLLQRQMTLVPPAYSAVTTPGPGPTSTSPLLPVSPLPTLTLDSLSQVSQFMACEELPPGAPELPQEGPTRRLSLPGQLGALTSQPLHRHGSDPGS
T1 sequence (Q00960 27-1482, other chains not shown): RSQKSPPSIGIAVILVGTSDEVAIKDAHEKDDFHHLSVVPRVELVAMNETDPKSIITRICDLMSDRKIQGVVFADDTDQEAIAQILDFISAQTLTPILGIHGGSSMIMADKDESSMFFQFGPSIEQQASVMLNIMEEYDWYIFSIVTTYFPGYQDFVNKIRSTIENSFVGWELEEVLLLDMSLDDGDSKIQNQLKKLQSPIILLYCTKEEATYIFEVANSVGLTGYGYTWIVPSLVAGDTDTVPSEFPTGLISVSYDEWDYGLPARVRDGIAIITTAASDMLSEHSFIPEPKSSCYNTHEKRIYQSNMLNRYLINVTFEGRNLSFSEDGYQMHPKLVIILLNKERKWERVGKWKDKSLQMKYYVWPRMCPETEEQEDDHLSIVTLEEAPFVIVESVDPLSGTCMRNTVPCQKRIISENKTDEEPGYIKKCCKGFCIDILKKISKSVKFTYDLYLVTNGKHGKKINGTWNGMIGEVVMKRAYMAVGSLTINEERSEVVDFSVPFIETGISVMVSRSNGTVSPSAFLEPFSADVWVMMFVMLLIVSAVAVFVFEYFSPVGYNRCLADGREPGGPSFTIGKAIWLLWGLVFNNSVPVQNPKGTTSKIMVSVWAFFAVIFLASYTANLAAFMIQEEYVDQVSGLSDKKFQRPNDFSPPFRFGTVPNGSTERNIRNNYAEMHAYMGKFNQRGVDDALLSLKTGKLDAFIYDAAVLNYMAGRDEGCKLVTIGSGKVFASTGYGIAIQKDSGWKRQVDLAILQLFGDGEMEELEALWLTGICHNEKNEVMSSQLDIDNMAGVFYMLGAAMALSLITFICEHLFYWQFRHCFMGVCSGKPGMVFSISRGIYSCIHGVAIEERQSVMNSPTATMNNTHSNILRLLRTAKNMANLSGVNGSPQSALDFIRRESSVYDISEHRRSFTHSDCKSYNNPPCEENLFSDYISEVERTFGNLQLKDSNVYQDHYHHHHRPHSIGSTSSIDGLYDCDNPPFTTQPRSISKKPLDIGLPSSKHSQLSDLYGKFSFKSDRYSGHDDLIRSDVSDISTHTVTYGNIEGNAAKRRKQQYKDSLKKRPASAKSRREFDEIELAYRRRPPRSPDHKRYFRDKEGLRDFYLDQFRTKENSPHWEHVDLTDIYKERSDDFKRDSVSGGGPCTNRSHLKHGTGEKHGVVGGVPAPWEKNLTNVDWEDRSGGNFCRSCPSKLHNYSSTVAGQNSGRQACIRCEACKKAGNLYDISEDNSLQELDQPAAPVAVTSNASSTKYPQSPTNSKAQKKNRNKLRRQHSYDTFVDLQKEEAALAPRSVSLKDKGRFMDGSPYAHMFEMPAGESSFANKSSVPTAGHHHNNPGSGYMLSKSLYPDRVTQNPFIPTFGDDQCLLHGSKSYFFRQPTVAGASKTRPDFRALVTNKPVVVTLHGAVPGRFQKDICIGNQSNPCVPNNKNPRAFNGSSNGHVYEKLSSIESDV

By IC50 is commonly meant the concentration at which inhibition is half-maximal. A low value points to greater potency. For `Cc1nccn1Cc1cn(-c2ccc(F)c(C(C)(F)F)c2)nn1` [Example 105, 1-[3-(1,1-Difluoro-ethyl)-4-fluoro-phenyl]-4-(2-methyl-imidazol-1-ylmethyl)-1H-[1,2,3]triazole], the IC50 in assay [1] amounted to 0.00405 µM; in assay [2], 73.1 µM; in assay [3] it was 0.00405 µM.
As to `Cc1ccc(-n2cc(Cn3ccnc3C3CC3)nn2)cc1F` [Example 63, 4-(2-Cyclopropyl-imidazol-1-ylmethyl)-1-(3-fluoro-4-methyl-phenyl)-1H-[1,2,3]triazole], the IC50 in assay [1] was 0.0871 µM; in assay [2], 11.2 µM; in assay [3], 0.0871 µM.
In the case of `FC(F)(F)c1cccc(-n2cc(Cn3ccnc3C3CC3)nn2)c1` [Example 68, 4-(2-Cyclopropyl-imidazol-1-ylmethyl)-1-(3-trifluoromethyl-phenyl)-1H-[1,2,3]triazole], the IC50 in assay [1] is 0.0916 µM; in assay [2], 5.12 µM; in assay [3], 0.0916 µM.
On to `Cc1nccn1Cc1cn(-c2cc(F)cc(C(F)F)c2)nn1` [Example 102], for which the results for the IC50 in assay [1], in assay [2] and in assay [3] were 0.0259 µM, 16.8 µM and 0.0259 µM, respectively.
On to `FC(F)Oc1cc(-n2cc(Cn3ccnc3C3CC3)nn2)ccc1Cl` [Example 94, 1-(4-Chloro-3-difluoromethoxy-phenyl)-4-(2-cyclopropyl-imidazol-1-ylmethyl)-1H-[1,2,3]triazole], for which the values for the IC50 in assay [1], in assay [2] and in assay [3] were 0.00391 µM, 3.02 µM and 0.00391 µM, respectively.
Turning to `CCc1nccn1Cc1cn(-c2ccc(Cl)c(Cl)c2)nn1` [Example 33, 1-(3,4-Dichloro-phenyl)-4-(2-ethyl-imidazol-1-ylmethyl)-1H-[1,2,3]triazole], the IC50 came out at 0.00465 µM in assay [1], 2.23 µM in assay [2] and 0.00465 µM in assay [3].
On to `OCCc1nccn1Cc1cn(-c2ccc(F)c(C(F)F)c2)nn1` [Example 88, 1-(3-Difluoromethyl-4-fluoro-phenyl)-4-[2-(2-hydroxy-ethyl)-imidazol-1-ylmethyl]-1H-[1,2,3]triazole], for which the IC50 was found to be 0.0145 µM in assay [1], 93.4 µM in assay [2] and 0.0145 µM in assay [3].
Regarding `Cc1nccn1Cc1cn(-c2ccc(Cl)cc2Cl)nn1` [Example 49, 1-(2,4-Dichloro-phenyl)-4-(2-methyl-imidazol-1-ylmethyl)-1H-[1,2,3]triazole], the IC50 in assay [1] is 0.778 µM; in assay [2] it was 4.53 µM; in assay [3], 0.778 µM.
Take `CCCCc1nccn1Cc1cn(-c2ccc(F)c(Cl)c2)nn1` [Example 45, 4-(2-Butyl-imidazol-1-ylmethyl)-1-(3-chloro-4-fluoro-phenyl)-1H-[1,2,3]triazole]: the IC50 in assay [1] stood at 0.00768 µM; in assay [2], 0.539 µM; in assay [3], 0.00768 µM.
For `Cc1nccn1Cc1cn(-c2ccc(Cl)c(C(F)F)c2)nn1` [Example 89, 1-(4-Chloro-3-difluoromethyl-phenyl)-4-(2-methyl-imidazol-1-ylmethyl)-1H-[1,2,3]triazole], the IC50 was determined as 0.00337 µM in assay [1], 8.52 µM in assay [2] and 0.00337 µM in assay [3].
For the compound `CCCc1nccn1Cc1cn(-c2ccc(Cl)cc2)nn1` [Example 18, 1-(4-Chloro-phenyl)-4-(2-propyl-imidazol-1-ylmethyl)-1H-[1,2,3]triazole], the IC50 in assay [1] came to 0.0466 µM; in assay [2], 2.23 µM; in assay [3] it was 0.0466 µM.
In the case of `FC(F)(F)c1ccc(-n2cc(Cn3ccnc3C3CC3)nn2)cc1` [Example 69, 4-(2-Cyclopropyl-imidazol-1-ylmethyl)-1-(4-trifluoromethyl-phenyl)-1H-[1,2,3]triazole], the IC50 in assay [1] was determined as 0.173 µM; in assay [2] it was 4.41 µM; in assay [3], 0.173 µM.
For the compound `CC(F)(F)c1cc(-n2cc(Cn3ccnc3CCO)nn2)ccc1F` [Example 106, 1-[3-(1,1-Difluoro-ethyl)-4-fluoro-phenyl]-4-[2-(2-hydroxy-ethyl)-imidazol-1-ylmethyl]-1H-[1,2,3]triazole], the IC50 in assay [1] and in assay [3] was 0.00808 µM throughout.
For the compound `CCCc1ncnn1Cc1cn(-c2ccc(Cl)cc2)nn1` [Example 2, 1-(4-Chloro-phenyl)-4-(5-propyl-[1,2,4]triazol-1-ylmethyl)-1H-[1,2,3]triazole], the IC50 was 0.032 µM in assay [2] and above 1 µM in assay [3].
For `Clc1ccc(-n2cc(Cn3cnc(C4CCC4)n3)nn2)cc1` [Example 12, 1-(4-Chloro-phenyl)-4-(3-cyclobutyl-[1,2,4]triazol-1-ylmethyl)-1H-[1,2,3]triazole], in that order: 11.8 µM and above 10 µM.
In the case of `Cc1nc(C)n(Cc2cn(-c3ccc(Cl)cc3)nn2)n1` [Example 1, 1-(4-Chloro-phenyl)-4-(3,5-dimethyl-[1,2,4]triazol-1-ylmethyl)-1H-[1,2,3]triazole], the figures for the IC50 in assay [2] and in assay [3] were 419 µM and above 10 µM, respectively.
Regarding `Cc1ncn(Cc2cn(-c3ccc(Cl)cc3)nn2)n1` [Example 9, 1-(4-Chloro-phenyl)-4-(3-methyl-[1,2,4]triazol-1-ylmethyl)-1H-[1,2,3]triazole], the IC50 was 46.9 µM in assay [2] and above 10 µM in assay [3].
On to `CCc1ncn(Cc2cn(-c3ccc(Cl)cc3)nn2)n1` [Example 6, 1-(4-Chloro-phenyl)-4-(3-ethyl-[1,2,4]triazol-1-ylmethyl)-1H-[1,2,3]triazole], for which the IC50 is 54.9 µM in assay [2] and above 10 µM in assay [3].
